Where “and” joins values, the source holds several entries; their conditions need not be identical. Equal values may be shown once. Read-outs that look alike come from different tables or passages of the source.
System: C. difficile
Assay type: cell-based
Settings: 37° C. 24 h; for concentration added at which a mass of bacteria and the surrounding medium exhibited yellow color / concentration added at which a mass of bacteria exhibited yellow color / concentration added at which a mass of bacteria was found: added to medium of Table 1

SMILES | concentration added at which a mass of bacteria and the surrounding medium exhibited yellow color | concentration added at which a mass of bacteria exhibited yellow color | concentration added at which a mass of bacteria was found | Yellow coloration degree (ascorbic acid added 0.075 g/L) | Yellow coloration degree (ascorbic acid added 0.16 g/L) | Yellow coloration degree (ascorbic acid added 0.32 g/L) | Yellow coloration degree (ascorbic acid added 0.64 g/L) | Yellow coloration degree (ascorbic acid added 1.8 g/L) | Yellow coloration degree (ascorbic acid added 2.7 g/L) | Yellow coloration degree (ascorbic acid added 3.6 g/L) | Yellow coloration degree (ascorbic acid added 4.5 g/L) | Yellow coloration degree (dithiothreitol added 0.075 g/L) | Yellow coloration degree (dithiothreitol added 0.16 g/L) | Yellow coloration degree (dithiothreitol added 0.32 g/L) | Yellow coloration degree (dithiothreitol added 0.60 g/L) | Yellow coloration degree (dithiothreitol added 0.90 g/L) | Yellow coloration degree (dithiothreitol added 1.2 g/L) | Yellow coloration degree (dithiothreitol added 1.5 g/L) | Yellow coloration degree (dithiothreitol added 1.8 g/L)
O=C1O[C@H]([C@@H](O)CO)C(O)=C1O [ascorbic acid] | 0.32 to 1.8 g/L | 0.16 to 2.7 g/L | 0.075 to 3.6 g/L | 1 | 2 | 3 | 3 | 3 | 2 | 1 | 0 |  |  |  |  |  |  |  | 
O[C@H](CS)[C@H](O)CS (racemic) [dithiothreitol] | 0.6 g/L and 0.9 g/L | 0.16 to 1.2 g/L | 0.075 to 1.5 g/L |  |  |  |  |  |  |  |  | 1 | 2 | 2 | 3 | 3 | 2 | 1 | 0
